PMC7287031 (Pharmacology Research & Perspectives, 2020)

Legend:
CYP3A4 = target: T1, CYP3A4 (Homo sapiens, UniProt P08684); experiment: Enzyme kinetics with recombinant CYP3A4 and scaling to HLM; type: in vitro ADME
T1 construct: purchased BD Biosciences
Procedure: (§1) In vitro incubations were carried out in 100‐mM potassium phosphate buffer (pH 7.4) and 5‐mM MgCl2 with a total volume of 200 µL. Substrate and either human liver microsomes (HLM, BD Biosciences, mixed gender pool of n = 50) or recombinant human enzymes (BD Biosciences) were added and pre‐incubated for 3 minutes at 37°C. The reaction was started by addition of a fresh solution of NADPH (1 mmol/L final concentration). The samples were incubated at 37°C with agitation of 500 rpm. For incubations with CYP2A6, CYP2C9, CYP2C18, and CYP4A11, the phosphate buffer was replaced by TRIS buffer (100 mmol/L, pH 7.4) and for flavin‐containing monooxygenases (FMOs), a glycine buffer (50 mM, pH 9.5) was used.
The enzymatic reaction was stopped and the protein was precipitated by addition of an equal volume of methanol. […] The supernatant was withdrawn. Aliquots were analyzed by LSC and the supernatant was diluted with water to obtain a final solution containing less than 20% of the organic solvent. For samples of low substrate concentration, supernatants were evaporated to dryness under nitrogen, then re‐suspended in water containing less than 20% of methanol. Samples were analyzed by HPLC combined with radiodetection.

[1] = Human ADME study: mass balance, excretion of radioactivity in urine and feces; type: in vivo; conditions: for radioactive dose excreted in urine: N=6, after 504 hours, mean; for Cumulative excretion of radioactivity, Total (urine and feces, mean) / Cumulative excretion of radioactivity, Urine (mean): single oral dose 600 mg, healthy male volunteers, n=6
Procedure: This single‐center, open‐label, single oral dose study enrolled six healthy, non‐smoking, male Caucasian volunteers who were determined as being in good health according to their medical history, physical examination, vital signs, electrocardiogram, laboratory tests, and urinalysis. Healthy male volunteers were selected as the foundation of the extensive human ADME data should be based on a small cohort (6) of young healthy male volunteers with subsequent extension/bridging to actual patients as needed for the investigation of variables such as age, gender, ethnicity, and health on the metabolic profile. Subjects with relevant radiation exposure of > 0.2 mSv in the 12 months prior to the initiation of the study were excluded. […] The study protocol and dosimetry calculations were reviewed by the Independent Ethics Committee for the center, and written informed consent was obtained from all subjects before entering the study.
Subjects continued to fast for 4 hours after drug administration.
Radioactivity contents in urine and feces homogenates were determined at the bioanalytical laboratory of PRA International, Zuidlaren, the Netherlands. For urine, duplicate (1000 µL) aliquots were placed into 7‐mL glass vials (Perkin Elmer), after which 5 mL of scintillation cocktail (Ultima Gold™, Perkin Elmer) was added. After vortex mixing for 5 seconds, each sample was placed in a Tri‐Carb™ 3100 TR liquid scintillation analyzer (Perkin Elmer, Waltham, MA, USA) 30 minutes before counting. The total [^14C]‐radioactivity of the samples was determined by counting until a statistical error (two standard deviations) of 0.5% was obtained with a counting time of 10 or 30 minutes, depending on the level of radioactivity.
For feces homogenates, quadruplicate, accurately weighed (500 mg) aliquots were dried in a stove at 50 °C for 3 hours. […] The absorber agent for CO2 was 7‐mL Carbo‐Sorb® E (Perkin Elmer). At the end of the combustion cycle, the absorber was mixed with 13 mL of the scintillant Permafluor® E (Perkin Elmer). The samples were placed in the liquid scintillation analyzer for 60 minutes before counting. The total [^14C]‐radioactivity of the samples was determined by counting until a statistical error (2 s) of 0.5% was obtained with a counting time of 10 or 30 minutes, depending on the level of radioactivity.

[2] = Enzyme kinetics of total oxidative metabolism in pooled human liver microsomes; type: in vitro ADME; conditions: both sexes, human, pooled human liver microsomes, pH 7.4; pooled HLM, Michaelis-Menten model
Procedure: as §1
(§2) The enzymatic reaction was stopped and the protein was precipitated by addition of an equal volume of methanol. After 30 min at −80°C, the samples were centrifuged at 30'000 x g for 15 min. The supernatant was withdrawn. Aliquots were analyzed by LSC and the supernatant was diluted with water to obtain a final solution containing less than 20% of the organic solvent. […] Samples were analyzed by HPLC combined with radiodetection.
(§3) Km and Vmax parameters were calculated by using SigmaPlot Version 8.0, Enzyme Kinetics module Version 1.1 software (SPSS Science Inc, Chicago, IL, USA). The intrinsic clearance was calculated by the equation: CLint = Vmax/Km.

human liver microsomes = experiment: as above; type: in vitro ADME; conditions: pooled HLM, Michaelis-Menten model
Procedure: as §1, §2, §3

T1 sequence (P08684 whole entry): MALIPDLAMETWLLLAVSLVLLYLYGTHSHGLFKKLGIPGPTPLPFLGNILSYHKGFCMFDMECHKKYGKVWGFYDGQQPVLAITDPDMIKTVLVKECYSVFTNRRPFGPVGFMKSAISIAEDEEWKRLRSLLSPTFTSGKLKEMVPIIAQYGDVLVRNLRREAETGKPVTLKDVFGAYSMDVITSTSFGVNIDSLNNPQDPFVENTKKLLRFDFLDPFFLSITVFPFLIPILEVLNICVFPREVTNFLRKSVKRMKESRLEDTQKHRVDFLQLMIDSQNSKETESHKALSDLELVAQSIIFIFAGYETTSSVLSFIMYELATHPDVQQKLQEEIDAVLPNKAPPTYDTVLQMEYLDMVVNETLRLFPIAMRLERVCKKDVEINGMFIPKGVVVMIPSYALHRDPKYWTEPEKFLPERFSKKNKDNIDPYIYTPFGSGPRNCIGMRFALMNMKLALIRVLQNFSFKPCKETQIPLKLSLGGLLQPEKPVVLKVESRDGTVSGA

## CN(C)C(=O)c1cc2cnc(Nc3ccc(N4CCNCC4)cn3)nc2n1C1CCCC1 [ribociclib, Ribociclib]
CYP3A4; CYP3A4, share of total CYP-mediated metabolism in HLM
  fm,CYP: 97%
CYP3A4; CYP3A4 incubation
  fumic: 0.83
CYP3A4; recombinant CYP3A4, substrate inhibition model
  Vmax: 12.3 ± 5.2 pmol/min/pmol
[1]; human, single oral 600 mg [14C]-ribociclib
  radioactive dose excreted in urine: 22.6%
[1]; human, single oral 600 mg [14C]-ribociclib, listed as [^14C]‐ribociclib
  radioactive dose excreted in urine: 22.6 ± 5.39%
[1]; human, single oral 600 mg [14C]-ribociclib, N=6, mean
  mass balance (total recovery of radioactivity): 91.7 ± 1.01%
[1]; human, radioactivity in urine plus radiolabeled metabolites in feces, assuming all formed systemically
  Oral absorption (estimate): approximately 58.8%
[1]; time 0 h
  Cumulative excretion of radioactivity, Total (urine and feces, mean): 0 % of dose
  Cumulative excretion of radioactivity, Urine (mean): 0 % of dose
[1]; time 6 h
  Cumulative excretion of radioactivity, Urine (mean): 4.85 % of dose
[1]; time 12 h
  Cumulative excretion of radioactivity, Urine (mean): 9.15 % of dose
[1]; time 24 h
  Cumulative excretion of radioactivity, Total (urine and feces, mean): 17.2 % of dose
  Cumulative excretion of radioactivity, Urine (mean): 12.9 % of dose
[1]; time 48 h
  Cumulative excretion of radioactivity, Total (urine and feces, mean): 47.5 % of dose
  Cumulative excretion of radioactivity, Urine (mean): 17.0 % of dose
[1]; time 72 h
  Cumulative excretion of radioactivity, Total (urine and feces, mean): 63.9 % of dose
  Cumulative excretion of radioactivity, Urine (mean): 19.0 % of dose
[1]; time 96 h
  Cumulative excretion of radioactivity, Total (urine and feces, mean): 75.9 % of dose
  Cumulative excretion of radioactivity, Urine (mean): 20.2 % of dose
[1]; time 120 h
  Cumulative excretion of radioactivity, Total (urine and feces, mean): 79.7 % of dose
  Cumulative excretion of radioactivity, Urine (mean): 20.9 % of dose
[1]; time 144 h
  Cumulative excretion of radioactivity, Total (urine and feces, mean): 83.8 % of dose
  Cumulative excretion of radioactivity, Urine (mean): 21.4 % of dose
[1]; time 168 h
  Cumulative excretion of radioactivity, Total (urine and feces, mean): 86.7 % of dose
  Cumulative excretion of radioactivity, Urine (mean): 21.8 % of dose
[1]; time 216 h
  Cumulative excretion of radioactivity, Total (urine and feces, mean): 88.6 % of dose
  Cumulative excretion of radioactivity, Urine (mean): 22.2 % of dose
[1]; time 240 h
  Cumulative excretion of radioactivity, Total (urine and feces, mean): 89.1 % of dose
  Cumulative excretion of radioactivity, Urine (mean): 22.3 % of dose
[1]; time 264 h
  Cumulative excretion of radioactivity, Total (urine and feces, mean): 89.6 % of dose
  Cumulative excretion of radioactivity, Urine (mean): 22.5 % of dose
[1]; time 288 h
  Cumulative excretion of radioactivity, Total (urine and feces, mean): 90.3 % of dose
  Cumulative excretion of radioactivity, Urine (mean): 22.5 % of dose
[1]; time 336 h
  Cumulative excretion of radioactivity, Total (urine and feces, mean): 90.9 % of dose
  Cumulative excretion of radioactivity, Urine (mean): 22.6 % of dose
[1]; time 360 h
  Cumulative excretion of radioactivity, Total (urine and feces, mean): 91.1 % of dose
  Cumulative excretion of radioactivity, Urine (mean): 22.6 % of dose
[1]; time 384 h
  Cumulative excretion of radioactivity, Total (urine and feces, mean): 91.3 % of dose
  Cumulative excretion of radioactivity, Urine (mean): 22.6 % of dose
[1]; time 408 h
  Cumulative excretion of radioactivity, Total (urine and feces, mean): 91.4 % of dose
  Cumulative excretion of radioactivity, Urine (mean): 22.6 % of dose
[1]; time 432 h
  Cumulative excretion of radioactivity, Total (urine and feces, mean): 91.6 % of dose
  Cumulative excretion of radioactivity, Urine (mean): 22.6 % of dose
[1]; time 456 h
  Cumulative excretion of radioactivity, Total (urine and feces, mean): 91.6 % of dose
  Cumulative excretion of radioactivity, Urine (mean): 22.6 % of dose
[1]; time 480 h
  Cumulative excretion of radioactivity, Total (urine and feces, mean): 91.7 % of dose
  Cumulative excretion of radioactivity, Urine (mean): 22.6 % of dose
[1]; time 504 h
  Cumulative excretion of radioactivity, Total (urine and feces, mean): 91.7 % of dose
  Cumulative excretion of radioactivity, Urine (mean): 22.6 % of dose
[2]
  Km: 29.1 ± 1.8 µM
Human liver microsomes
  Vmax, total metabolism: 766 ± 13 pmol/min/mg
